Measurements reported in patent US20070037752A1, “Novel alanyl-amino peptidase inhibitors for functionally influencing different cells and treating immunological, inflammatory, neuronal, and other diseases” (priority 2003, published 2007).

The compounds below were run against alanyl aminopeptidases (APN) (Homo sapiens, UniProt P15144) (assay: Inhibition of alanyl aminopeptidase enzymatic activity, fluorogenic substrate (Ala)2-rhodamine 110). Conditions: Table 4, starred values = ID50; read-out: ID50 APN (values marked with *).
Type: biochemical
Procedure: The inhibition characteristics measured are referred to as IC-50 values or ID50 values (the latter marked with “*”) for said enzyme. The enzymatic activity was determined by means of the fluorogenic substrate/product (Ala)2-rhodamine 110.

Chain of alanyl aminopeptidases (APN) (P15144 whole entry, species assumed): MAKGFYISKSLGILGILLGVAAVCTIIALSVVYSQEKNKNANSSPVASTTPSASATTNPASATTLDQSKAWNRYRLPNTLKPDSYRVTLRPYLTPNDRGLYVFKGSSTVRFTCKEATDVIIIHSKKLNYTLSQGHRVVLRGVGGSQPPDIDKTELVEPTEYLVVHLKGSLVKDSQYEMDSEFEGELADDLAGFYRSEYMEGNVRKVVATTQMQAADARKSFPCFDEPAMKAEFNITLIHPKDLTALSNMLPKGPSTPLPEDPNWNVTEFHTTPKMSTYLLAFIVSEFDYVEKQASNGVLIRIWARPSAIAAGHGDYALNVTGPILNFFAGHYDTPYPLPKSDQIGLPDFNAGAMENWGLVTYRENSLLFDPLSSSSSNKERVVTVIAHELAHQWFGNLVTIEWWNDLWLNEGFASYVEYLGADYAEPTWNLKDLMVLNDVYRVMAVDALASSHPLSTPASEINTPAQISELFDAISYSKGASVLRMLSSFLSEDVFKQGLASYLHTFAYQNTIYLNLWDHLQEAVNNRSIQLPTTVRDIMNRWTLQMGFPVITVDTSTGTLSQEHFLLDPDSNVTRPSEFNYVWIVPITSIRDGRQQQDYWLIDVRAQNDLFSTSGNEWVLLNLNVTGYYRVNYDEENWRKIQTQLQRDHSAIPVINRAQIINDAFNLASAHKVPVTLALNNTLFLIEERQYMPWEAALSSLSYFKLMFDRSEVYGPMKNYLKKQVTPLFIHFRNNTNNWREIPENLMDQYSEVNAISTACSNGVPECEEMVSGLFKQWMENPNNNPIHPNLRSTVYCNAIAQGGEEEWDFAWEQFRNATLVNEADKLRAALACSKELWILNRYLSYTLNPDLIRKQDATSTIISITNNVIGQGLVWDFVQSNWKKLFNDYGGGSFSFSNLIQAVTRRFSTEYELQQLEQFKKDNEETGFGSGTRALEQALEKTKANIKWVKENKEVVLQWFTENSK

Compared with `O=C(CNC(=O)c1ccccc1)N/N=C/c1ccco1` [A4.140], `COc1ccc(/C=N/NC(=O)CNC(=O)c2cccc(F)c2)cc1[N+](=O)[O-]` [A4.167] is 1.6-fold higher in IC50: 49.4 µM for the first, 80.4 µM for the second.

Same assay, conditions: Table 4, unstarred values; read-out: IC50APN

`COc1cc(Br)ccc1OCC(=O)N/N=C(C)/C=C/c1ccco1` [A4.116] and `Cc1ccc(OCC(=O)N/N=C/c2ccco2)cc1C` [A4.117] are the same in IC50: 36.3 µM for the first, 36.3 µM for the second.

First: O=C(N/N=C/c1cc(Br)c(O)c(Br)c1O)/C(=C\c1ccc2c(c1)OCO2)NC(=O)c1ccccc1 [A4.073]
Second: O=C(N/N=C/c1ccco1)c1cc(-c2ccc(F)cc2)n[nH]1 [A4.031]
The IC50 of the first is 1.6-fold higher: 23.6 µM for the first, 14.4 µM for the second. The second is the more potent here.

First: CCc1cccc(CC)c1NC(=S)N/N=C1\C(=O)N(CN2CC(C)CC(C)C2)c2ccccc21 (stereo not drawn) [A4.007]
Second: O=C(CCn1nnc2ccccc21)N/N=C/c1ccco1 [A4.169]
The IC50 of the first is 12-fold lower: 6.7 µM for the first, 82.9 µM for the second.

Going from `COc1ccc(/C(C)=N/NC(=O)CNC(=O)/C=C\c2ccco2)cc1` [A4.093] to `O=C(N/N=C/c1cccc([N+](=O)[O-])c1)c1ccco1` [A4.132], the IC50 rises from 29.4 µM to 45.4 µM (1.5-fold).

Same assay, conditions: Table 6; read-out: IC50APN

First: CC1CCCN(S(=O)(=O)c2ccc(NC(=O)/C=C/c3ccco3)cc2)C1 (stereo not drawn) [A6.002]
Second: Cc1ccccc1S(=O)(=O)Nc1cccc(C(=O)N/N=C/c2ccco2)c1 [A6.009]
The IC50 of the first is 2.3-fold lower: 8.4 µM for the first, 19.2 µM for the second. The first is the more potent here.

Compared with `Cc1ccc(S(=O)(=O)CNC(=S)c2ccc(Cl)c(Cl)c2)cc1` [A6.011], `CC1CCN(S(=O)(=O)c2ccc3c(c2)C(Cl)(Cl)C(=O)N3)CC1` [A6.015] is 2.1-fold higher in IC50: 18 µM for the first, 37.2 µM for the second. The first is the more potent here.

Compound `O=[N+](O)CC(c1ccccc1)P(=O)(c1ccccc1)c1ccccc1` (stereo not drawn) [A6.007] has an IC50 of 16.3 µM.

Same assay, conditions: Table 7; read-out: IC50APN

`O=C(O)CSCC1NC(=S)N(c2ccccc2)C1=O` (stereo not drawn) [A7.005] showed an IC50 of 12 µM.

Same assay, conditions: Table 8, unstarred values; read-out: IC50APN

First: Cc1cccc(C)c1NC(=S)NC(=O)c1cccs1 [A8.010]
Second: CC(=O)C1C(c2ccc(N(C)C)cc2)C2C(=O)N(C3CCCCC3)C(=O)N2C1c1sccc1C (stereo not drawn) [A8.036]
The IC50 of the first is 5.3-fold lower: 12.9 µM for the first, 68 µM for the second. The first is the more potent here.

With `CC1=NC(N)=NC(C)(C)N1c1c(Cl)cccc1Cl` [A8.034] the IC50 was 59.8 µM.

Same assay, conditions: Table 9, starred values = ID50; read-out: ID50 APN (values marked with *)

`CCc1ccc(NC(=O)C2CCN(S(=O)(=O)c3ccc(Cl)cc3)CC2)cc1` [A9.114] and `COc1c(OCC(O)C(C)(C)O)ccc2c1N=C1OC=CC1C2OC` (stereo not drawn) [A9.120] are within 1.5-fold of each other in IC50: 80.4 µM for the first, 117 µM for the second.

Same assay, conditions: Table 9, unstarred values

For `COC(=O)C1=C(N)N2C(=O)CSC2=C(C(=O)OC)C1` [A9.001], the IC50APN was “‘very high ac- tive’, beyond measure”.

Same assay, conditions: Table 9, unstarred values; read-out: IC50APN

Going from `CC1(C)N=C(N)N=C(N)N1c1c(Cl)cccc1Cl` [A9.105] to `CCCN1C(=O)C(C#N)=C(C)/C(=C\c2ccc(-c3cccc(Cl)c3C)o2)C1=O` [A9.049], the IC50 falls from 59.8 µM to 20.8 µM (2.9-fold).

Compared with `Cc1ccc(C(=O)N/C(=C\c2ccco2)C(=O)N2CCOCC2)cc1C` [A9.073], `Cc1ccc(S(=O)(=O)N2CCC(C(=O)N/N=C/c3ccco3)CC2)cc1` [A9.110] is 2.4-fold higher in IC50: 28.8 µM for the first, 69.3 µM for the second. The first is the more potent here.

Compared with `O=C(NC(Sc1ccncn1)C(=O)c1ccccc1)c1ccccc1` (stereo not drawn) [A9.068], `O=C1Nc2cc(C(=O)N3CCN(c4ccccc4)CC3)ccc2NC1CSCc1ccccc1F` (stereo not drawn) [A9.106] is 2.3-fold higher in IC50: 26.9 µM for the first, 61.5 µM for the second. The first is the more potent here.

First: O=C(CNS(=O)(=O)c1ccc2c(c1)OCCO2)N/N=C/c1ccco1 [A9.104]
Second: O=C(Cc1ccc([N+](=O)[O-])cc1)N1CCOCC1 [A9.044]
The IC50 of the first is 2.9-fold higher: 55.6 µM for the first, 19.1 µM for the second. The second is the more potent here.

`CCc1cccc(CC)c1NC(=S)N/N=C1\C(=O)N(CN2CC(C)CC(C)C2)c2ccccc21` (stereo not drawn) [A9.011] and `COC(=O)c1cccc(-c2ccc(/C=C3\C(=O)N(CCO)C(=O)C(C#N)=C3C)o2)c1` [A9.010] are within 1.5-fold of each other in IC50: 6.7 µM for the first, 6.3 µM for the second.

Going from `O=C(O)C1N=NC(c2ccc(F)cc2)=CN1O` (stereo not drawn) [A9.038] to `CCCOC(=O)c1cc(-c2ccc(/C=C3/C(=O)N(CC(C)O)C(=O)C(C#N)=C3C)o2)ccc1Cl` (stereo not drawn) [A9.083], the IC50 rises from 17.1 µM to 32 µM (1.9-fold).

First: CC1(C)CC(CC/N=C/c2ccccc2)(Cc2ccccc2)CCO1 (stereo not drawn) [A9.116]
Second: CCCOC(=O)c1cc(-c2ccc(/C=C3\C(=O)N(CCCO)C(=O)C(C#N)=C3C)o2)ccc1Cl [A9.064]
The IC50 of the first is 3.9-fold higher: 93.6 µM for the first, 23.8 µM for the second. The second is the more potent here.

For `COc1cc(C)[n+](OC(=O)N(C)C)c(C)c1` [A9.095], the IC50 was 42.4 µM.

Same assay, conditions: Table 11; read-out: IC50APN

Compared with `O=[N+](O)CC(c1ccccc1)P(=O)(c1ccccc1)c1ccccc1` (stereo not drawn) [A11.011], `N#Cc1cc(N2CC3CC(C2)c2cccc(=O)n2C3)c([N+](=O)[O-])cc1C#N` (stereo not drawn) [A11.004] is 1.8-fold lower in IC50: 16.3 µM for the first, 8.9 µM for the second. The second is the more potent here.

Same assay, conditions: Table 12; read-out: IC50APN

First: CSCCC1NC(=S)N(Cc2ccccc2)C1=O (stereo not drawn) [A12.027]
Second: CC(CCc1ccccc1)C(=O)NO (stereo not drawn) [A12.044]
The IC50 of the first is 1.8-fold lower: 14.1 µM for the first, 25.2 µM for the second.

Compared with `COc1ccc(C(OCCC(=O)NO)c2ccccc2)cc1` (stereo not drawn) [A12.053], `O=C(CCOC(c1ccccc1)c1ccc(Br)cc1)NO` (stereo not drawn) [A12.008] is 5.2-fold lower in IC50: 33 µM for the first, 6.3 µM for the second.

First: COC(=O)C(NC(=O)c1ccccc1)(Nc1sc2c(c1C#N)CCC(C(C)(C)C)C2)C(F)(F)F (stereo not drawn) [A12.056]
Second: CCOC(=O)C(NC(=O)c1cccc(Cl)c1)(Nc1ccc(OC)cc1OC)C(F)(F)F (stereo not drawn) [A12.040]
The IC50 of the first is 2-fold higher: 43.6 µM for the first, 21.7 µM for the second.

In the case of `Cc1ccc(C(=O)N/C(=C\c2ccco2)C(=O)N2CC3CC(C2)c2cccc(=O)n2C3)cc1` (stereo not drawn) [A12.019], the IC50 is reported as 11 µM.

Same assay, conditions: Table 13; read-out: IC50APN

Compared with `CC(=O)c1cccc(-c2ccc(/C=C3/C(=O)N(CCCO)C(=O)C(C#N)=C3C)o2)c1` [A13.009], `CC1=C(C#N)C(O)=NC(=O)/C1=C/c1ccc(-c2ccc(Cl)cc2Cl)o1` [A13.018] is 1.8-fold higher in IC50: 18.2 µM for the first, 32.4 µM for the second. The first is the more potent here.
